Patent US20260226493A1, “HERBICIDE RESISTANT PLANTS” (SYNGENTA CROP PROTECTION AG, priority 2023, published 2026)

Tests used:
Assay in all cases: BIO3-BIO1 mutant enzyme activity in the presence of herbicide, percentage inhibition (fluorometric DAPA assay)
Type in all cases: biochemical
Details in all cases: read-out: percentage inhibition
[1] = biological target: T1, Arabidopsis thaliana BIO3-BIO1 (BioDA) mutants (Arabidopsis thaliana, UniProt B0F481, C388D)
T1 construct: with the predicted N-terminal mitochondrial transit peptide removed; 6xHis-tag (N); thrombin cleavage site (N); made in house; host or cells: E. coli BL21 (DE3) bioA
T1 sequence (B0F481 23-833 C388D): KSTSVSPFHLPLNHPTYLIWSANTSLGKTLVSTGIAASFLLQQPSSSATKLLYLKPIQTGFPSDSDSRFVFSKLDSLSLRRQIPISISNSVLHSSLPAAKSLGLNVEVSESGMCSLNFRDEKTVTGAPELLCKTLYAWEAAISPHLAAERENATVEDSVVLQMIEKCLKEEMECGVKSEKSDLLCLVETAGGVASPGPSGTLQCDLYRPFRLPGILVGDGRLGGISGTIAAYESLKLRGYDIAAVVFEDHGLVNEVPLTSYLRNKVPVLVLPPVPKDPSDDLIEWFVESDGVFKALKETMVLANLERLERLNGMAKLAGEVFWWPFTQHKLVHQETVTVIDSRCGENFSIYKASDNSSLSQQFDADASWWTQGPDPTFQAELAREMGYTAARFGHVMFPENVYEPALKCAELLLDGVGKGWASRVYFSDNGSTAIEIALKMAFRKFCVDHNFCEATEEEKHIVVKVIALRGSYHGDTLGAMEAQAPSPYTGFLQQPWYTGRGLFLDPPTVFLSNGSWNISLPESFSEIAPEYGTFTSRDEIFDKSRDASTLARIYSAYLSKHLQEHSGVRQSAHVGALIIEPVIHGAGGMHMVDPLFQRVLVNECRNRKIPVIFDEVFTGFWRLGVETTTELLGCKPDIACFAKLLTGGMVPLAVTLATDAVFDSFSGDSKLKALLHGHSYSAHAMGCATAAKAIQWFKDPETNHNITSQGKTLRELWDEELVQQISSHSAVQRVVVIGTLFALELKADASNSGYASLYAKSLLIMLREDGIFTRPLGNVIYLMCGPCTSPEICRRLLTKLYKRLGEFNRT
From the text: (§1) A pet-24 plasmid containing a DNA sequence encoding each identified variant mutant of BIO3-BIO1 derived from Arabidopsis thaliana from example 5 above, as shown in Table 13 below and as shown in full in SEQ ID NOs: 15 to 155, codon-optimised for expression in E. coli, with an N-terminal 6×His-tag and thrombin cleavage site and under control of a T7 promoter, and was synthesised by Twist Bioscience, in a similar manner to SEQ ID NO:311. These plasmids were then expressed in E. coli BL21 (DE3) bioA with 50 μg/mL kanamycin and 25 μg/mL chloramphenicol selection. Overnight cultures grown at 37° C. were used to inoculate 8×500 mL AIM in shake flasks at a ratio of 1:100. Cultures were grown at 37° C., 200 rpm for 3.5 hours and then overnight at 20° C. Cells were harvested by centrifugation for 30 minutes at 10 000 g. Cells were stored at −80° C. until extraction. 30 g of cell pellet from was thawed in 120 mL of IMAC buffer A (20 mM HEPES pH7.5, 25 mM imidazole, 500 mM sodium chloride, 0.15 mM pyridoxal phosphate, 0.5 mM TCEP, 1× complete Protease Inhibitor Tablet (Roche)). The resuspension was passed through a cell disrupter at 18 000 PSI and centrifuged at 50 000 g for 25 minutes at 4° C. The His-tagged BIO3-BIO1 protein was purified from the extract supernatant on an AKTA avant chromatography system (Cytiva) using a HisTrap FF column and eluted in IMAC buffer B ((20 mM HEPES pH7.5, 500 mM imidazole, 500 mM sodium chloride, 0.15 mM pyridoxal phosphate, 0.5 mM TCEP) followed by SEC using a HiLoad 26/60 Superdex200 column in SEC buffer (25 mM HEPES pH7.5, 150 mM sodium chloride, 0.15 mM pyridoxal phosphate, 0.5 mM TCEP). Protein concentration was measured and calculated using the absorbance at 280 nm. Extracts were diluted 1 in 4 and 10 uL was analysed by SDS PAGE.
(§2) To measure BIO3-BIO1 mutant enzyme activity in the presence of herbicide, herbicides were incubated with 20 μL of enzyme mix (100 mM EPPS pH 8.6, 0.1 mM pyridoxal phosphate, 0.1 mg/mL BSA, 50 nM BIO3-BIO1 enzyme) for 10 minutes at 20° C. in a well of a 96-well half-area black plate, followed by the addition of 20 μL of substrate mix (final concentration of 100 mM EPPS pH 8.6, 0.1 mM pyridoxal phosphate, 0.1 mg/mL BSA, 100 μM spermidine, 20 μM KAPA, 100 mM NaCO3) and further incubation for 75 minutes at 20° C. The reaction was terminated by the addition of 50 μL of derivatisation mix (final concentration of 250 mM borate NaOH pH 9.4, 3.6 mM o-phthalaldehyde, 7 mM β-mercaptoethanol, 17% (v/v) ethanol, 3.6% (v/v) methanol). The fluorescent product produced by the reaction of DAPA with o-phthalaldehyde and 7 mM β-mercaptoethanol was measured at 470 nm after excitation at 410 nm. The percentage inhibition was calculated as the activity in the presence of one of three concentrations of each herbicide compound A to M (note that the compounds labelled as A to M are identified hereinabove in the relevant section of the description) as a percentage of the activity in DMSO (Table 12 and 13). The percentage activity versus WT was also calculated and is shown in Table 13 and 14 (NT indicates mutation not tested in table 13, note that these mutations are tested at different compound concentrations for compounds L, M and C, and the results are shown in table 14).

[2] = biological target: T2, Arabidopsis thaliana BIO3-BIO1 (BioDA) mutants (Arabidopsis thaliana, UniProt B0F481, P508T)
T2 construct: with the predicted N-terminal mitochondrial transit peptide removed; 6xHis-tag (N); thrombin cleavage site (N); made in house; host or cells: E. coli BL21 (DE3) bioA
T2 sequence (B0F481 23-833 P508T): as the sequence (B0F481 23-833 C388D) above, with D366C, P486T counted along it
From the text: as §1, §2

[3] = biological target: T3, Arabidopsis thaliana BIO3-BIO1 (BioDA) mutants (Arabidopsis thaliana, UniProt B0F481, G608E)
T3 construct: with the predicted N-terminal mitochondrial transit peptide removed; 6xHis-tag (N); thrombin cleavage site (N); made in house; host or cells: E. coli BL21 (DE3) bioA
T3 sequence (B0F481 23-833 G608E): as the sequence (B0F481 23-833 C388D) above, with D366C, G586E counted along it
From the text: as §1, §2

[4] = biological target: T4, Arabidopsis thaliana BIO3-BIO1 (BioDA) mutants (Arabidopsis thaliana, UniProt B0F481, S509I)
T4 construct: with the predicted N-terminal mitochondrial transit peptide removed; 6xHis-tag (N); thrombin cleavage site (N); made in house; host or cells: E. coli BL21 (DE3) bioA
T4 sequence (B0F481 23-833 S509I): as the sequence (B0F481 23-833 C388D) above, with D366C, S487I counted along it
From the text: as §1, §2

[5] = biological target: T5, Arabidopsis thaliana BIO3-BIO1 (BioDA) mutants (Arabidopsis thaliana, UniProt B0F481, T512C)
T5 construct: with the predicted N-terminal mitochondrial transit peptide removed; 6xHis-tag (N); thrombin cleavage site (N); made in house; host or cells: E. coli BL21 (DE3) bioA
T5 sequence (B0F481 23-833 T512C): as the sequence (B0F481 23-833 C388D) above, with D366C, T490C counted along it
From the text: as §1, §2

[6] = biological target: T6, Arabidopsis thaliana BIO3-BIO1 (BioDA) mutants (Arabidopsis thaliana, UniProt B0F481, S509Y)
T6 construct: with the predicted N-terminal mitochondrial transit peptide removed; 6xHis-tag (N); thrombin cleavage site (N); made in house; host or cells: E. coli BL21 (DE3) bioA
T6 sequence (B0F481 23-833 S509Y): as the sequence (B0F481 23-833 C388D) above, with D366C, S487Y counted along it
From the text: as §1, §2

[7] = biological target: T7, Arabidopsis thaliana BIO3-BIO1 (BioDA) mutants (Arabidopsis thaliana, UniProt B0F481, Y511I)
T7 construct: with the predicted N-terminal mitochondrial transit peptide removed; 6xHis-tag (N); thrombin cleavage site (N); made in house; host or cells: E. coli BL21 (DE3) bioA
T7 sequence (B0F481 23-833 Y511I): as the sequence (B0F481 23-833 C388D) above, with D366C, Y489I counted along it
From the text: as §1, §2

[8] = biological target: T8, Arabidopsis thaliana BIO3-BIO1 (BioDA) mutants (Arabidopsis thaliana, UniProt B0F481, Y511Q)
T8 construct: with the predicted N-terminal mitochondrial transit peptide removed; 6xHis-tag (N); thrombin cleavage site (N); made in house; host or cells: E. coli BL21 (DE3) bioA
T8 sequence (B0F481 23-833 Y511Q): as the sequence (B0F481 23-833 C388D) above, with D366C, Y489Q counted along it
From the text: as §1, §2

[9] = biological target: T9, Arabidopsis thaliana BIO3-BIO1 (BioDA) mutants (Arabidopsis thaliana, UniProt B0F481, Q517W)
T9 construct: with the predicted N-terminal mitochondrial transit peptide removed; 6xHis-tag (N); thrombin cleavage site (N); made in house; host or cells: E. coli BL21 (DE3) bioA
T9 sequence (B0F481 23-833 Q517W): as the sequence (B0F481 23-833 C388D) above, with D366C, Q495W counted along it
From the text: as §1, §2

[10] = biological target: T10, Arabidopsis thaliana BIO3-BIO1 (BioDA) mutants (Arabidopsis thaliana, UniProt B0F481, S390C)
T10 construct: with the predicted N-terminal mitochondrial transit peptide removed; 6xHis-tag (N); thrombin cleavage site (N); made in house; host or cells: E. coli BL21 (DE3) bioA
T10 sequence (B0F481 23-833 S390C): as the sequence (B0F481 23-833 C388D) above, with D366C, S368C counted along it
From the text: as §1, §2

[11] = biological target: T11, Arabidopsis thaliana BIO3-BIO1 (BioDA) mutants (Arabidopsis thaliana, UniProt B0F481, Y511R)
T11 construct: with the predicted N-terminal mitochondrial transit peptide removed; 6xHis-tag (N); thrombin cleavage site (N); made in house; host or cells: E. coli BL21 (DE3) bioA
T11 sequence (B0F481 23-833 Y511R): as the sequence (B0F481 23-833 C388D) above, with D366C, Y489R counted along it
From the text: as §1, §2

[12] = biological target: T12, Arabidopsis thaliana BIO3-BIO1 (BioDA) mutants (Arabidopsis thaliana, UniProt B0F481, V354E)
T12 construct: with the predicted N-terminal mitochondrial transit peptide removed; 6xHis-tag (N); thrombin cleavage site (N); made in house; host or cells: E. coli BL21 (DE3) bioA
T12 sequence (B0F481 23-833 V354E): as the sequence (B0F481 23-833 C388D) above, with V332E, D366C counted along it
From the text: as §1, §2

| SMILES | inhibition at 0.2 µM [1] | inhibition at 1 µM [1] | inhibition at 5 µM [1] | inhibition at 0.2 µM [2] | inhibition at 1 µM [2] | inhibition at 5 µM [2] | inhibition at 0.2 µM [4] | inhibition at 1 µM [4] | inhibition at 5 µM [4] | inhibition at 0.2 µM [5] | inhibition at 1 µM [5] | inhibition at 5 µM [5] | inhibition at 1 µM [6] | inhibition at 1 µM [7] | inhibition at 1 µM [8] | inhibition at 1 µM [9] | inhibition at 1 µM [3] | inhibition at 1 µM [10] | inhibition at 1 µM [11] | inhibition at 1 µM [12] | further results |
| --- | --- | --- | --- | --- | --- | --- | --- | --- | --- | --- | --- | --- | --- | --- | --- | --- | --- | --- | --- | --- | --- |
| CCn1c(Cn2ccc(C(F)(F)F)n2)cc(=O)c(C(=O)O)c1-c1ccc(Cl)c(Cl)c1 [Compound L, 2-(3,4-dichlorophenyl)-1-ethyl-4-oxo-6-[[3-(trifluoromethyl)pyrazol-1-yl]methyl]pyridine-3-carboxylic acid] | – | – | – | – | – | – | – | – | – | – | – | – | – | – | – | – | – | – | – | – | inhibition at 0.01 µM [1]: 0%; inhibition at 0.075 µM [1]: 0%; inhibition at 0.5 µM [1]: 6%; inhibition at 0.01 µM [2]: 25%; inhibition at 0.075 µM [2]: 22%; inhibition at 0.5 µM [2]: 85%; inhibition at 0.01 µM [3]: 31%; inhibition at 0.075 µM [3]: 58%; inhibition at 0.5 µM [3]: 68% |
| CCn1c(C)c(-c2ccc(F)cc2F)c(=O)c(C(=O)O)c1-c1ccc(Cl)c(Cl)c1 [Compound C, 2-(3,4-dichlorophenyl)-5-(2,4-difluorophenyl)-1-ethyl-6-methyl-4-oxo-pyridine-3-carboxylic acid] | 5% | 0% | 9% | 23% | 54% | 82% | 38% | 84% | 99% | 22% | 83% | 97% | 76% | 93% | 97% | 72% | 52% | 55% | 99% | 0% | inhibition at 0.2 µM [6]: 37%; inhibition at 5 µM [6]: 95%; inhibition at 0.2 µM [7]: 36%; inhibition at 5 µM [7]: 100%; inhibition at 0.2 µM [8]: 78%; inhibition at 5 µM [8]: 98%; inhibition at 0.2 µM [9]: 29%; inhibition at 5 µM [9]: 90%; inhibition at 0.2 µM [3]: 25%; inhibition at 5 µM [3]: 81%; inhibition at 0.2 µM [10]: 27%; inhibition at 5 µM [10]: 83%; inhibition at 0.2 µM [11]: 80%; inhibition at 5 µM [11]: 99%; inhibition at 0.2 µM [12]: 0%; inhibition at 5 µM [12]: 39% |
| CCn1c(-c2ccc(Cl)c(Cl)c2)c(C(=O)O)c(=O)c2cc(F)ccc21 [Compound M, 2-(3,4-dichlorophenyl)-1-ethyl-6-fluoro-4-oxo-quinoline-3-carboxylic acid] | 0% | 0% | 0% | 20% | 44% | 78% | 30% | 65% | 92% | 27% | 79% | 95% | 58% | 81% | 87% | 51% | 55% | 44% | 96% | 0% | inhibition at 0.2 µM [6]: 28%; inhibition at 5 µM [6]: 85%; inhibition at 0.2 µM [7]: 21%; inhibition at 5 µM [7]: 96%; inhibition at 0.2 µM [8]: 54%; inhibition at 5 µM [8]: 95%; inhibition at 0.2 µM [9]: 26%; inhibition at 5 µM [9]: 79%; inhibition at 0.2 µM [3]: 19%; inhibition at 5 µM [3]: 85%; inhibition at 0.2 µM [10]: 16%; inhibition at 5 µM [10]: 74%; inhibition at 0.2 µM [11]: 74%; inhibition at 5 µM [11]: 99%; inhibition at 0.2 µM [12]: 0%; inhibition at 5 µM [12]: 23% |
| CCOC(=O)c1nn(-c2ccc3c(c2)OC(F)(F)C(F)(F)O3)c2cccc(C(C)=O)c2c1=O [Compound A, ethyl 5-acetyl-4-oxo-1-(2,2,3,3-tetrafluoro-1,4-benzodioxin-6-yl)cinnoline-3-carboxylate] | – | 14% | – | – | 55% | – | – | 0% | – | – | 50% | – | 3% | 17% | 21% | 9% | 56% | 21% | 46% | 25% | – |
